Results on 8 molecules are retold here after article PMC4133103 (DNA repair, 2014).

One data set deals with T1, Dpo4•DNA binary complex (Saccharolobus solfataricus, UniProt Q97W02).
T1 sequence (Q97W02 1-352): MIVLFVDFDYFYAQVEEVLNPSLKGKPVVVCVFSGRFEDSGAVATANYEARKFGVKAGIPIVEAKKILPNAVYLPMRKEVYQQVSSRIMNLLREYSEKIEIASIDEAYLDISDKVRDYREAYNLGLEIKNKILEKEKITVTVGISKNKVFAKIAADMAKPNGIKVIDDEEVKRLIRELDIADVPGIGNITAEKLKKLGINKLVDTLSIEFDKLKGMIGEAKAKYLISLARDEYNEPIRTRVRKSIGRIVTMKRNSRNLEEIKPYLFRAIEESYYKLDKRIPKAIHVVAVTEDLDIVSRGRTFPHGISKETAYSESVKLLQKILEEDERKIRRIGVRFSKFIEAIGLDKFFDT
Nature of the data set: Substrate specificity assay. Type of data set: biochemical, Sulfolobus solfataricus. As to conditions: for Probability: efficiency/sum of efficiencies × 100; for kp / Kd: Dpo4 120 nM, 37 °C; for Fidelity: incorrect/(correct+incorrect) efficiency; for Kd: read-out: Kd,dNTP.

The subject of data set [1] is Salmonella typhimurium (TA98). As to conditions: cited from earlier work.
Data set [2] relates to nucleotide excision repair-deficient human XPA cells. The following applies: cited from earlier work.
Another data set addresses T2, Dpo4 (DNA polymerase IV) (Sulfolobus solfataricus, UniProt Q97W02 1-352).
T2 sequence: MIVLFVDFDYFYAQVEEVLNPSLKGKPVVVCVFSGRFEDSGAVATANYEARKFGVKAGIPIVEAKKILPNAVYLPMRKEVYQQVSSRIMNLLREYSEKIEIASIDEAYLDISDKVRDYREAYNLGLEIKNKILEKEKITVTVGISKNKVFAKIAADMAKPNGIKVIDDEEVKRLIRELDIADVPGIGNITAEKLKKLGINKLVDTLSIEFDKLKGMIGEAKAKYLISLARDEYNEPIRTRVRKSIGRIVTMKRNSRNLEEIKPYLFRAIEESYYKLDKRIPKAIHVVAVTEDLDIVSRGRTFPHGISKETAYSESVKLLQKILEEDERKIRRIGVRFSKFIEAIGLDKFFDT
The experiment in a line: EMSA. For orientation: Mobility shift assays separate free from complexed probe on a gel.

[3] abbreviates: DNA substrate 18/26-mer-dG^C8-N-ABA.
Setting [4] is: DNA substrate 18/26-mer-dG^C8-N-ABA vs control 18/26-mer.
The mark [5] stands for this setting: DNA substrate 19/26-mer-dG^C8-N-ABA.
Where [6] appears, read: DNA substrate 19/26-mer-dG^C8-N-ABA 30 nM.
Where [7] appears, read: DNA substrate 19/26-mer-dG^C8-N-ABA vs control 19/26-mer.
The mark [8] stands for this setting: DNA substrate 20/26-mer-dG^C8-N-ABA (pause site).
[9] abbreviates: DNA substrate 20/26-mer-dG^C8-N-ABA vs control 20/26-mer.
The mark [10] stands for this setting: DNA substrate 20/26-mer-dG^C8-N-ABA.
[11] abbreviates: DNA substrate 21/26-mer-dG^C8-N-ABA (pause site).
Setting [12] is: DNA substrate 21/26-mer-dG^C8-N-ABA (pause site) 30 nM.
Setting [13] is: DNA substrate 21/26-mer-dG^C8-N-ABA vs control 21/26-mer.
Where [14] appears, read: DNA substrate 21/26-mer-dG^C8-N-ABA.
[15] abbreviates: DNA substrate 22/26-mer-dG^C8-N-ABA.
Where [16] appears, read: DNA substrate 22/26-mer-dG^C8-N-ABA vs control 22/26-mer.
Where [17] appears, read: DNA substrate 18/26-mer-dG^C8-N-ABA 30 nM.
Setting [18] is: DNA substrate 21/26-mer-dG^C8-N-ABA (pause site, extension) 30 nM.
[19] abbreviates: DNA substrate 22/26-mer-dG^C8-N-ABA 30 nM.
Where [20] appears, read: DNA substrate 20/26-mer-dG^C8-N-ABA (pause site) 30 nM.

Like-named read-outs stand apart in the source and are kept apart here.

Take `Nc1ncnc2c1ncn2[C@H]1C[C@H](O)[C@@H](COP(=O)(O)OP(=O)(O)OP(=O)(O)O)O1` [dATP]: the “(kp/Kd, dNTP)damaged” value on Dpo4•DNA binary complex (setting [3]) was 9.1 M⁻¹ s⁻¹; at Dpo4•DNA binary complex (setting [5]), 6.7 M⁻¹ s⁻¹; at Dpo4•DNA binary complex (setting [8]), 3 M⁻¹ s⁻¹; on Dpo4•DNA binary complex (setting [11]), 1 M⁻¹ s⁻¹; on Dpo4•DNA binary complex (setting [15]) it was 11 M⁻¹ s⁻¹. The “Efficiency Ratio (kp/Kd, dNTP)control/(kp/Kd, dNTP)damaged” value (“Efficiency Ratio” for short) at Dpo4•DNA binary complex (setting [4]) is reported as 0.85; on Dpo4•DNA binary complex (setting [7]), 2.1; at Dpo4•DNA binary complex (setting [9]), 6.3; on Dpo4•DNA binary complex (setting [13]), 2.4; on Dpo4•DNA binary complex (setting [16]) it was 0.38. Moreover, the Probability at Dpo4•DNA binary complex (setting [3]) was determined as 0.01; on Dpo4•DNA binary complex (setting [5]), 0.07; on Dpo4•DNA binary complex (setting [10]), 0.61; on Dpo4•DNA binary complex (setting [14]), 3.83; on Dpo4•DNA binary complex (setting [15]) it was 0.34. Further, the kp entry on Dpo4•DNA binary complex (setting [6]) was “(2.9 ± 0.2) × 10^−3 s^−1”; at Dpo4•DNA binary complex (setting [12]), “(4.5 ± 0.2) × 10^−4 s^−1”. In addition, the Fidelity at Dpo4•DNA binary complex (setting [5]) was 7.0 × 10^−4; at Dpo4•DNA binary complex (setting [10]) it was 6.1 × 10^−4; at Dpo4•DNA binary complex (setting [14]), 4.3 × 10^−2; at Dpo4•DNA binary complex (setting [15]), 3.4 × 10^−4. Also, the equilibrium dissociation constant (Kd) at Dpo4•DNA binary complex (setting [17]) turned out to be 2200 ± 600 µM; at Dpo4•DNA binary complex (setting [6]) it was 430 ± 60 µM; at Dpo4•DNA binary complex (setting [18]), 450 ± 50 µM; on Dpo4•DNA binary complex (setting [19]), 470 ± 70 µM.

As for `O=C1c2ccccc2-c2ccc([N+](=O)[O-])c3cccc1c23` [3-NBA, 3-Nitrobenzanthrone], the mutagenicity entry in data set [1] is recorded as “one of the most mutagenic compound ever tested”.

In the case of `Nc1nc2c(nc(Nc3ccc4c5c(cccc35)C(=O)c3ccccc3-4)n2[C@H]2C[C@H](O)[C@@H](CO)O2)c(=O)[nH]1` [dG^C8-N-ABA, N-(2’-deoxyguanosin-8-yl)-3-aminobenzanthrone], the “replication block among the three major 3-NBA derived DNA adducts” value in data set [2] was “strongest replication block”. In addition, the mutational frequency in data set [2] (primarily G-to-A transitions followed by G-to-T transversions) is 30.6%.

Regarding `Cc1cn([C@H]2C[C@H](O)[C@@H](COP(=O)(O)OP(=O)(O)OP(=O)(O)O)O2)c(=O)[nH]c1=O` [dTTP], the “(kp/Kd, dNTP)damaged” value on Dpo4•DNA binary complex (setting [3]) stood at 16 M⁻¹ s⁻¹; on Dpo4•DNA binary complex (setting [5]), 5.5 M⁻¹ s⁻¹; on Dpo4•DNA binary complex (setting [8]), 1.6 M⁻¹ s⁻¹; on Dpo4•DNA binary complex (setting [11]), 0.4 M⁻¹ s⁻¹; at Dpo4•DNA binary complex (setting [15]), 2.2 M⁻¹ s⁻¹. Moreover, the “Efficiency Ratio” value at Dpo4•DNA binary complex (setting [4]) was 5.4; at Dpo4•DNA binary complex (setting [7]) it was 1.6; on Dpo4•DNA binary complex (setting [9]) it was 52; at Dpo4•DNA binary complex (setting [13]), 4.5; on Dpo4•DNA binary complex (setting [16]) it was 5.0. For the same molecule, the Probability at Dpo4•DNA binary complex (setting [3]) worked out at 0.02; at Dpo4•DNA binary complex (setting [5]), 0.05; on Dpo4•DNA binary complex (setting [10]), 0.32; on Dpo4•DNA binary complex (setting [14]) it was 1.57; at Dpo4•DNA binary complex (setting [15]), 0.07. For the same molecule, the Fidelity at Dpo4•DNA binary complex (setting [5]) is listed as 5.7 × 10^−4; on Dpo4•DNA binary complex (setting [14]), 1.8 × 10^−2; on Dpo4•DNA binary complex (setting [15]), 6.9 × 10^−4. The kp result at Dpo4•DNA binary complex (setting [12]) is given as “(1.7 ± 0.1) × 10^−4 s^−1”. The dissociation constant Kd was found to be 420 ± 80 µM on Dpo4•DNA binary complex (setting [18]) and 770 ± 140 µM at Dpo4•DNA binary complex (setting [19]).

For the molecule `Nc1ccn([C@H]2C[C@H](O)[C@@H](COP(=O)(O)OP(=O)(O)OP(=O)(O)O)O2)c(=O)n1` [dCTP], the “(kp/Kd, dNTP)damaged” value stood at 88000 M⁻¹ s⁻¹ at Dpo4•DNA binary complex (setting [3]), 6.4 M⁻¹ s⁻¹ on Dpo4•DNA binary complex (setting [5]), 490 M⁻¹ s⁻¹ at Dpo4•DNA binary complex (setting [8]) and 2.7 M⁻¹ s⁻¹ at Dpo4•DNA binary complex (setting [11]). Also, the kp at Dpo4•DNA binary complex (setting [17]) was 2.83 ± 0.08 s⁻¹; on Dpo4•DNA binary complex (setting [6]), “(1.4 ± 0.2) × 10^−3 s^−1”; on Dpo4•DNA binary complex (setting [20]), 0.25 ± 0.02 s⁻¹; at Dpo4•DNA binary complex (setting [12]), “(4.3 ± 0.1) × 10^−4 s^−1”; at Dpo4•DNA binary complex (setting [19]) it was 4.5 ± 0.7 s⁻¹. For the same molecule, the “Efficiency Ratio” value stood at 1.25 at Dpo4•DNA binary complex (setting [4]); 22 at Dpo4•DNA binary complex (setting [7]); 120 at Dpo4•DNA binary complex (setting [9]); 12 at Dpo4•DNA binary complex (setting [13]); 11 on Dpo4•DNA binary complex (setting [16]). In addition, the Probability at Dpo4•DNA binary complex (setting [3]) was found to be 99.95; at Dpo4•DNA binary complex (setting [5]) it was 0.06; at Dpo4•DNA binary complex (setting [10]), 98.93; on Dpo4•DNA binary complex (setting [14]), 10.34; on Dpo4•DNA binary complex (setting [15]), 99.55. In addition, the Fidelity on Dpo4•DNA binary complex (setting [5]) is given as 6.7 × 10^−4; on Dpo4•DNA binary complex (setting [14]) it was 1.1 × 10^−1. Also, the equilibrium dissociation constant (Kd) on Dpo4•DNA binary complex (setting [17]) came out at 32 ± 5 µM; at Dpo4•DNA binary complex (setting [6]), 220 ± 80 µM; on Dpo4•DNA binary complex (setting [18]) it was 160 ± 20 µM; at Dpo4•DNA binary complex (setting [19]) it was 1400 ± 300 µM.

`Nc1nc2c(ncn2[C@H]2C[C@H](O)[C@@H](COP(=O)(O)OP(=O)(O)OP(=O)(O)O)O2)c(=O)[nH]1` [dGTP]: the “(kp/Kd, dNTP)damaged” value at Dpo4•DNA binary complex (setting [3]) came out at 18 M⁻¹ s⁻¹; on Dpo4•DNA binary complex (setting [5]), 9600 M⁻¹ s⁻¹; on Dpo4•DNA binary complex (setting [8]) it was 0.68 M⁻¹ s⁻¹; on Dpo4•DNA binary complex (setting [11]) it was 22 M⁻¹ s⁻¹; on Dpo4•DNA binary complex (setting [15]), 1.3 M⁻¹ s⁻¹. For the same molecule, the “Efficiency Ratio” value on Dpo4•DNA binary complex (setting [4]) was determined as 1.6; on Dpo4•DNA binary complex (setting [7]) it was 2.6; at Dpo4•DNA binary complex (setting [9]) it was 66; on Dpo4•DNA binary complex (setting [13]), 170; at Dpo4•DNA binary complex (setting [16]) it was 6.5. For the same molecule, the Probability is listed as 0.02 on Dpo4•DNA binary complex (setting [3]); 99.82 on Dpo4•DNA binary complex (setting [5]); 0.14 at Dpo4•DNA binary complex (setting [10]); 84.26 on Dpo4•DNA binary complex (setting [14]); 0.04 at Dpo4•DNA binary complex (setting [15]). For the same molecule, the kp is 0.48 ± 0.02 s⁻¹ on Dpo4•DNA binary complex (setting [6]), “(8.1 ± 0.1) × 10^−4 s^−1” at Dpo4•DNA binary complex (setting [20]) and “(8.9 ± 0.7) × 10^−4 s^−1” at Dpo4•DNA binary complex (setting [12]). Moreover, the Fidelity on Dpo4•DNA binary complex (setting [10]) was 1.4 × 10^−4; at Dpo4•DNA binary complex (setting [15]), 4.1 × 10^−4. Moreover, the Kd at Dpo4•DNA binary complex (setting [17]) is 350 ± 40 µM; on Dpo4•DNA binary complex (setting [6]), 50 ± 9 µM; at Dpo4•DNA binary complex (setting [18]), 400 ± 80 µM; on Dpo4•DNA binary complex (setting [19]), 1100 ± 200 µM.

B1: 22/26-mer-dGC8-N-ABA (dsDNA)
DNA 1: AACGACGGCCAGTGAATTCGCG
DNA 2: CCCGCGCGAATTCACTGGCCGTCGTT
modifications: N-(2'-deoxyguanosin-8-yl)-3-aminobenzanthrone (dGC8-N-ABA) at G6 of strand 2 (from 5' end)
B1 had a Kd with Dpo4 (DNA polymerase IV) of 0.005 ± 0.0009 µM.

B2: 21/26-mer-dGC8-N-ABA (dsDNA)
DNA 1: AACGACGGCCAGTGAATTCGC
DNA 2: CCCGCGCGAATTCACTGGCCGTCGTT
modifications: N-(2'-deoxyguanosin-8-yl)-3-aminobenzanthrone (dGC8-N-ABA) at G6 of strand 2 (from 5' end)
In the case of B2, the Kd with Dpo4 (DNA polymerase IV) worked out at 0.029 ± 0.007 µM.

By Kd is commonly meant the concentration at which binding is half-saturated.
